The values that follow come from US12349973B2 (priority 2019, dated 2025).

Series [1] relates to pupil light response / muscarinic receptors within the iris. On the set-up: species or system human. The settings on record: in vivo.
Series [2] has as its system muscarinic receptors within the eye. To be noted: in vivo; cited from earlier work.
The target in series [3] is human iris muscarinic receptors. To be noted: cited from earlier work.
Series [4] relates to accommodation control system / ciliary body muscarinic receptors. To be noted: in vivo.

On to `CN1[C@@H]2CC[C@H]1C[C@@H](OC(=O)C(CO)c1ccccc1)C2` (stereo partly drawn) [atropine], for which, in series [1], the “baseline difference in pupil size” value stood at 0.6 mm, the “estimated level of receptor blockade 1-(V400post/V400pre)” value was 35% and the “peak difference in pupil constriction (light response)” value turned out to be 1.6 mm. Moreover, in series [2], the duration of effects is 6 to 12 days; the “duration of pupil dilatation and paralysis of accommodation” value is given as “up to 7 days”. Moreover, the “apparent dissociation constant KA” value in series [3] is 0.4 to 0.7 nM.

Regarding `CN(C)CCOC(=O)C(c1ccccc1)C1(O)CCCC1` (stereo not drawn) [cyclopentolate], the ability to accommodate result in series [4] (human) is listed as “maintained the ability to accommodate sufficiently to read at 33 cm”. In series [4], the “mean increase in the AC/A ratio over baseline” value is 173% and the “receptoral blockade suggested by AC/A increase” value came out at 42%.
